Measured values published in US7700652B2, “Treating urinary incontinence using prodrugs of GABA analogs” (XenoPort, Inc., priority 2003, dated 2010).

Assay: drug release from the osmotic sustained release dosage form in artificial gastric fluid
Format: physicochemical
Settings: sustained release oral osmotic dosage form of Example 1 (700 mg drug composition per bilayer core, one 10 mil passageway)
Procedure: Next, one 10 mil (0.254 mm) exit passageway is mechanically drilled through the semipermeable wall to connect the drug layer with the exterior of the dosage system. The residual solvent is removed by first drying for 120 hours at 50° C. and 30% relative humidity, then the systems are dried for 2 hours at 50° C. to remove excess moisture. The drug dosage form produced by this process provides: ˜90 wt % 1-{[(α-isobutanoyloxyethoxy)carbonyl]aminomethyl}-1-cyclohexane acetic acid, 4 wt % hydroxypropylmethylcellulose (11,200 molecular weight), 4 wt % polyethylene oxide of 5,000,000 molecular weight and 1 wt % magnesium stearate in the drug layer. The push composition comprises […] polyethylene oxide (7,500,000 molecular weight) 30 wt % sodium chloride, 5 wt % hydroxypropylmethylcellulose (11,200 molecular weight) 1 wt % red ferric oxide, 0.25 wt % magnesium stearate, and 0.075 wt % of butylated hydroxytoluene. The wall comprises 100 wt % cellulose acetate comprising a ˜40% acetyl content. The dosage form has one passageway, 10 mils (0.254 mm), and it has a 1-{[(α-isobutanoyloxyethoxy)carbonyl]aminomethyl}-1-cyclohexane acetic acid release rate of >20 mg/hr and a half life for drug release of >8 hours in artificial gastric fluid.

With `CC(OC(=O)NCC1(CC(=O)O)CCCCC1)OC(=O)C(C)C` (stereo not drawn) [1-{[(α-isobutanoyloxyethoxy)carbonyl]aminomethyl}-1-cyclohexane acetic acid] the release rate was over 20 mg/h.
